For data set [1], the system named is SARS-CoV-2. Format: cell-based.
The subject of data set [2] is SARS-CoV-2. Format: cell-based. Conditions: Calu-3, independently of the time of administration.
The test system of the next data set is Calu-3 cells. The settings on record: MTT.
For data set [3] the following is noted: cited from earlier work.
The nature of a further data set: in vitro. The settings on record: African green monkey.
The test system of a further data set is Vero E6 cells. Conditions: MTT, within the concentration range tested (1-80 μM).

What is called IC50 is the point on the concentration scale where inhibition reaches its midpoint. Consider `C[C@H]1[C@@H](O)O[C@@H]2O[C@@]3(C)CC[C@H]4[C@H](C)CC[C@@H]1[C@@]24OO3` [DHA, dihydroartemisinin], for which the “LR (reduction of viral load)” value with SARS-CoV-2 [1] is on record as less than 1 log. The “effect on viral replication (in words)” value in the data set on SARS-CoV-2 [2] is recorded as “slightly interfere with viral replication”. Also, in the data set with Calu-3 cells (concentration up to 20 μM), the “cytotoxicity (in words)” value was “noncytotoxic”. In the data set on Calu-3 cells (concentrations above 20 μM), the “cell viability at the higher concentrations tested (in words)” value is reported as “slightly altering cell viability”. Further, in data set [3], the “decomposition in cell culture medium after 6 h” value is recorded as “up to 70%”. The molecule also gave an IC50 in “in vitro” of 21.6 µM.

In the case of `C[C@H](CCC(=O)O)[C@H]1CC[C@H]2[C@@H]3[C@@H](O)C[C@@H]4C[C@H](O)CC[C@]4(C)[C@H]3CC[C@]12C` [UDCA, ursodeoxycholic acid], the “LR (reduction of viral load)” value in the data set on SARS-CoV-2 [1] is given as less than 1 log. In the data set with Vero E6 cells, the “cytotoxicity (in words)” value is listed as “noncytotoxic”.

These data come from article PMC10688034 (ACS Omega, 2023).
